From PubChem BioAssay AID1259411 (Chemical Carcinogenesis Research Information System (CCRIS), 2018)
Calls of active or inactive are those of the source. How the calls were made is not given here.

Tested on: rodent carcinogenicity bioassays, tumor incidence
Test: CCRIS carcinogenicity studies
Procedure, shortened: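 Archive of carcinogenicity, mutagenicity, tumor promotion and tumor inhibition results drawn from journals, NCI reports and other sources, expert-reviewed; covers 1985-2011 and is no longer updated.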

**Q.** With `O=C(OC[C@@H]1O[C@H](OC(=O)c2cc(O)c(O)c(OC(=O)c3cc(O)c(O)c(O)c3)c2)[C@@H](OC(=O)c2cc(O)c(O)c(OC(=O)c3cc(O)c(O)c(O)c3)c2)[C@H](OC(=O)c2cc(O)c(O)c(OC(=O)c3cc(O)c(O)c(O)c3)c2)[C@H]1OC(=O)c1cc(O)c(O)c(OC(=O)c2cc(O)c(O)c(O)c2)c1)c1cc(O)c(O)c(OC(=O)c2cc(O)c(O)c(O)c2)c1` as the molecule, how does the carcinogen call (Species: MOUSE, Route: SUBCUTANEOUS, Tumor Site: Type of Lesion: LIVER, INJECTION SITE) read?
**A.** The carcinogen call was “active; positive”.

**Q.** And the carcinogen call (Species: RAT, Route: SUBCUTANEOUS, Tumor Site: Type of Lesion: LIVER)?
**A.** The carcinogen call was “active; positive”.

**Q.** What about the carcinogen call (Species: RAT, Strain/Sex: F344/FEMALE, Route: ORAL, Dose: 0, 0.25, 0.5% IN DISTILLED WATER AS DRINKING WATER FOR 2 YR (STUDY DURATION: 114 WK), Dose: 0, 0.25, 0.5% IN DISTILLED WATER AS DRINKING WATER FOR 2 YR (STUDY DURATION: 114 WK)) of the same molecule?
**A.** Its carcinogen call is “inactive; negative”.

**Q.** And the carcinogen call (Species: RAT, Strain/Sex: F344/MALE, Route: ORAL, Dose: 0, 0.25, 0.5% IN DISTILLED WATER AS DRINKING WATER FOR 2 YR (STUDY DURATION: 114 WK), Dose: 0, 0.25, 0.5% IN DISTILLED WATER AS DRINKING WATER FOR 2 YR (STUDY DURATION: 114 WK))?
**A.** The carcinogen call was “inactive; negative”.

**Q.** For `CC(=O)Nc1ccc(-c2ccc(N(O)C(C)=O)cc2)cc1`, which carcinogen call (Species: RAT, Strain/Sex: STRAIN-CD/FEMALE, Route: INTRAPERITONEAL, Dose: 0, 10, 30 UMOL/KG IN TRIOCTANOIN 2/WK FOR 4 WK (TOTAL DOSES: 13.2, 40.0 UMOL) (STUDY DURATION: 46 WK), Dose: 0, 10, 30 UMOL/KG IN TRIOCTANOIN 2/WK FOR 4 WK (TOTAL DOSES: 13.2, 40.0 UMOL) (STUDY DURATION: 46 WK), Tumor Site: Type of Lesion: MAMMARY GLAND: FIBROADENOMA, ADENOCARCINOMA, EAR (ZYMBAL GLAND): ADENOMA OR CARCINOMA) is on record?
**A.** The carcinogen call was “active; positive”.

**Q.** `CCOP(=S)(OCC)Oc1nc(Cl)c(Cl)cc1Cl` was tested. Which carcinogen call (Species: Mouse, Strain/Sex: CD-1/Female (59/group), Route: Oral, Dose: 0, 5, 50, 250 ppm in diet for 79 wk, Dose: 0, 5, 50, 250 ppm in diet for 79 wk) did it give?
**A.** The carcinogen call was “inactive; negative (study details not given in source; purity 99.6%)”.

**Q.** What about the carcinogen call (Species: Mouse, Strain/Sex: CD-1/Male (59/group), Route: Oral, Dose: 0, 5, 50, 250 ppm in diet for 79 wk, Dose: 0, 5, 50, 250 ppm in diet for 79 wk) of the same molecule?
**A.** Its carcinogen call is “inactive; negative (study details not given in source; purity 99.6%)”.

**Q.** What about the carcinogen call (Species: RAT, Strain/Sex: F344/FEMALE, Route: ORAL, Dose: 0, 0.05, 0.1, 1, 10 MG/KG BW/D IN DIET FOR 104 WK (STUDY DURATION: 104 WK), Dose: 0, 0.05, 0.1, 1, 10 MG/KG BW/D IN DIET FOR 104 WK (STUDY DURATION: 104 WK)) of the same molecule?
**A.** The carcinogen call was “inactive; negative”.

**Q.** And the carcinogen call (Species: RAT, Strain/Sex: F344/MALE, Route: ORAL, Dose: 0, 0.05, 0.1, 1, 10 MG/KG BW/D IN DIET FOR 104 WK (STUDY DURATION: 104 WK), Dose: 0, 0.05, 0.1, 1, 10 MG/KG BW/D IN DIET FOR 104 WK (STUDY DURATION: 104 WK))?
**A.** Its carcinogen call is “inactive; negative”.

**Q.** What does the source list for `CO[C@@H]1[C@@H](O[C@@H]2O[C@H](C)[C@@H](O[C@H]3C[C@@](C)(O)[C@@H](OC(=O)CC(C)C)[C@H](C)O3)[C@H](N(C)C)[C@H]2O)[C@@H](CC=O)C[C@@H](C)[C@@H](O)/C=C/C=C/C[C@@H](C)OC(=O)C[C@H]1OC(C)=O`?
**A.** carcinogen call (Species: RAT, Strain/Sex: F344/FEMALE, Route: ORAL, Dose: 0, 1.25, 2.5% IN DIET FOR 104 WK (STUDY DURATION: 106 WK), Dose: 0, 1.25, 2.5% IN DIET FOR 104 WK (STUDY DURATION: 106 WK)): inactive; negative; carcinogen call (Species: RAT, Strain/Sex: F344/MALE, Route: ORAL, Dose: 0, 1.25, 2.5% IN DIET FOR 104 WK (STUDY DURATION: 106 WK)): inactive; negative

**Q.** With `O=Cc1ccco1` as the molecule, how does the carcinogen call (Species: MOUSE, Strain/Sex: B6C3F1/FEMALE, Route: GAVAGE, Dose: 0, 50, 100, 175 MG/KG IN CORN OIL 5 D/WK FOR 103 WK (STUDY DURATION: 105 WK), Dose: 0, 50, 100, 175 MG/KG IN CORN OIL 5 D/WK FOR 103 WK (STUDY DURATION: 105 WK), Tumor Site: Type of Lesion: LIVER: HEPATOCELLULAR ADENOMA, HEPATOCELLULAR ADENOMA OR CARCINOMA, FORESTOMACH: SQUAMOUS PAPILLOMA) read?
**A.** The carcinogen call was “active; positive”.

**Q.** What about the carcinogen call (Species: MOUSE, Strain/Sex: B6C3F1/MALE, Route: GAVAGE, Dose: 0, 50, 100, 175 MG/KG IN CORN OIL 5 D/WK FOR 103 WK (STUDY DURATION: 105 WK), Dose: 0, 50, 100, 175 MG/KG IN CORN OIL 5 D/WK FOR 103 WK (STUDY DURATION: 105 WK), Tumor Site: Type of Lesion: LIVER: HEPATOCELLULAR ADENOMA, HEPATOCELLULAR CARCINOMA) of the same molecule?
**A.** The carcinogen call was “active; positive”.

**Q.** What about the carcinogen call (Species: MOUSE, Strain/Sex: CD-1/FEMALE, Route: DERMAL, Dose: 0, 50 UMOL/0.1 ML DMSO 2/WK FOR 5 WK FOLLOWED 1 WK LATER BY 0.1 ML ACETONE 2/WK FOR 47 WK (STUDY DURATION: 52 WK)) of the same molecule?
**A.** The carcinogen call was “inactive; negative”.

**Q.** And the carcinogen call (Species: RAT, Strain/Sex: F344/FEMALE, Route: GAVAGE, Dose: 0, 30, 60 MG/KG IN CORN OIL 5 D/WK FOR 103 WK (STUDY DURATION: 105 WK), Dose: 0, 30, 60 MG/KG IN CORN OIL 5 D/WK FOR 103 WK (STUDY DURATION: 105 WK))?
**A.** The carcinogen call was “inactive; negative”.

**Q.** And the carcinogen call (Species: RAT, Strain/Sex: F344/MALE, Route: GAVAGE, Dose: 0, 30, 60 MG/KG IN CORN OIL 5 D/WK FOR 103 WK (STUDY DURATION: 105 WK), Dose: 0, 30, 60 MG/KG IN CORN OIL 5 D/WK FOR 103 WK (STUDY DURATION: 105 WK), Tumor Site: Type of Lesion: BILE DUCT: CHOLANGIOCARCINOMA)?
**A.** Its carcinogen call is “active; positive”.

**Q.** `N#CC(Br)Br` was tested. Which carcinogen call (Species: Mouse, Strain/Sex: B6C3F1/Female (50/group), Route: Oral, Dose: 0, 50, 100, 200 mg/l in drinking water for 2 yr, Dose: 0, 50, 100, 200 mg/l in drinking water for 2 yr, Tumor Site: Type of Lesion: Forestomach: squamous cell papilloma and squamous cell carcinoma combined (1/50, 0/50, 5/50, 14/50)) did it give?
**A.** The carcinogen call was “active; positive (ntp describes as clear evidence)”.

**Q.** What about the carcinogen call (Species: Mouse, Strain/Sex: B6C3F1/Male (50/group), Route: Oral, Dose: 0, 50, 100, 200 mg/l in drinking water for 2 yr, Dose: 0, 50, 100, 200 mg/l in drinking water for 2 yr, Tumor Site: Type of Lesion: Forestomach: squamous cell papilloma and squamous cell carcinoma combined (0/50, 1/50, 0/50, 5/50). Liver: hepatoblastom) of the same molecule?
**A.** Its carcinogen call is “active; positive (ntp describes as clear evidence)”.

**Q.** And the carcinogen call (Species: Rat, Strain/Sex: F344/N / Female (50/group), Route: Oral, Dose: 0, 50, 100, 200 mg/l in drinking water for 2 yr, Dose: 0, 50, 100, 200 mg/l in drinking water for 2 yr, Tumor Site: Type of Lesion: Oral Cavity (oral mucosa or tongue): squamous cell papilloma (1/50, 0/50, 4/50, 0/50). Skin: squamous cell papilloma, ke)?
**A.** Its carcinogen call is “active; positive (ntp describes as some evidence)”.

**Q.** And the carcinogen call (Species: Rat, Strain/Sex: F344/N / Male (50/group), Route: Oral, Dose: 0, 50, 100, 200 mg/l in drinking water for 2 yr, Dose: 0, 50, 100, 200 mg/l in drinking water for 2 yr, Tumor Site: Type of Lesion: Oral Cavity (oral mucosa or tongue): squamous cell papilloma and carcinoma combined (0/50, 0/50, 2/50, 5/50) (Statistica)?
**A.** The carcinogen call was “active; positive (ntp describes as clear evidence)”.

**Q.** For `Cn1c(=O)c2[nH]cnc2n(C)c1=O`, which carcinogen call (Species: MOUSE, Strain/Sex: B6C3F1/FEMALE, Route: GAVAGE, Dose: 0, 7.5, 25, 75 MG/KG BW IN CORN OIL 5 D/WK FOR 726 D (STUDY DURATION: 2 YR), Dose: 0, 7.5, 25, 75 MG/KG BW IN CORN OIL 5 D/WK FOR 726 D (STUDY DURATION: 2 YR)) is on record?
**A.** The carcinogen call was “inactive; negative”.

**Q.** And the carcinogen call (Species: MOUSE, Strain/Sex: B6C3F1/MALE, Route: GAVAGE, Dose: 0, 15, 50, 150 MG/KG BW IN CORN OIL 5 D/WK FOR 726 D (STUDY DURATION: 2 YR), Dose: 0, 15, 50, 150 MG/KG BW IN CORN OIL 5 D/WK FOR 726 D (STUDY DURATION: 2 YR))?
**A.** The carcinogen call was “inactive; negative”.

**Q.** And the carcinogen call (Species: RAT, Strain/Sex: F344/FEMALE, Route: GAVAGE, Dose: 0, 7.5, 25, 75 MG/KG BW IN CORN OIL 5 D/WK FOR 729 D (STUDY DURATION: 2 YR), Dose: 0, 7.5, 25, 75 MG/KG BW IN CORN OIL 5 D/WK FOR 729 D (STUDY DURATION: 2 YR))?
**A.** The carcinogen call was “inactive; negative”.

**Q.** And the carcinogen call (Species: RAT, Strain/Sex: F344/MALE, Route: GAVAGE, Dose: 0, 7.5, 25, 75 MG/KG BW IN CORN OIL 5 D/WK FOR 729 D (STUDY DURATION: 2 YR), Dose: 0, 7.5, 25, 75 MG/KG BW IN CORN OIL 5 D/WK FOR 729 D (STUDY DURATION: 2 YR))?
**A.** Its carcinogen call is “inactive; negative”.
